Results as given in ChEMBL document CHEMBL1201862, “PubChem BioAssay data set” (2004).
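Following 48 hours of exposure in 96-well plates, responses at five concentrations were used to interpolate endpoints linearly. At the GI50, growth is halved.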 Active and inactive are the calls of the source. No stated cut-off is given here; in the data, active = GI50 up to about 1.1 µM and inactive = higher.

How the values were obtained:
Test in all cases: inhibition of tumour cell growth, NCI panel, 48 h
M19-MEL = test system: M19-MEL
KM12 = test system: KM12
SN12C = test system: SN12C
OVCAR-4 = test system: OVCAR-4
SNB-75 = test system: SNB-75
K562 = test system: K562
TK-10 = test system: TK-10
CAKI-1 = test system: CAKI-1
NCI-H23 = test system: NCI-H23
786-0 = test system: 786-0
HCC 2998 = test system: HCC 2998
COLO 205 = test system: COLO 205
DLD-1 = test system: DLD-1
NCI-H522 = test system: NCI-H522
DMS-273 = test system: DMS-273
HCT-15 = test system: HCT-15
OVCAR-3 = test system: OVCAR-3
M14 = test system: M14
CCRF-CEM = test system: CCRF-CEM
SR = test system: SR
SK-OV-3 = test system: SK-OV-3
HL-60 = test system: HL-60
XF498 = test system: XF498
HOP-18 = test system: HOP-18
EKVX = test system: EKVX
OVCAR-8 = test system: OVCAR-8
RXF 631 = test system: RXF 631
SF-539 = test system: SF-539
NCI-H226 = test system: NCI-H226
RPMI-8226 = test system: RPMI-8226
SK-MEL-2 = test system: SK-MEL-2
HT-29 = test system: HT-29
HCT-116 = test system: HCT-116
LOX IMVI = test system: LOX IMVI
IGROV-1 = test system: IGROV-1
DMS-114 = test system: DMS-114
MOLT-4 = test system: MOLT-4
U-251 = test system: U-251
UACC-62 = test system: UACC-62
LXFL 529 = test system: LXFL 529
NCI-H460 = test system: NCI-H460
SF-295 = test system: SF-295
Malme-3M = test system: Malme-3M
HOP-92 = test system: HOP-92
SNB-19 = test system: SNB-19
SNB-78 = test system: SNB-78
UO-31 = test system: UO-31
SF-268 = test system: SF-268
ACHN = test system: ACHN
SK-MEL-28 = test system: SK-MEL-28
KM-20L2 = test system: KM-20L2
A498 = test system: A498
UACC-257 = test system: UACC-257
A549 = test system: A549
HOP-62 = test system: HOP-62
SK-MEL-5 = test system: SK-MEL-5
OVCAR-5 = test system: OVCAR-5
SW-620 = test system: SW-620
RXF 393 = test system: RXF 393

C=CC1(c2ccccc2Cl)N/C(=C/OCC)CO1 (stereo not drawn)
GI50 (M19-MEL): > 100 µM (inactive)
GI50 (KM12): > 100 µM (inactive)
GI50 (SN12C): > 100 µM (inactive)
GI50 (OVCAR-4): > 100 µM (inactive)
GI50 (SNB-75): 36.6 µM (inactive)
GI50 (K562): > 100 µM (inactive)
GI50 (TK-10): > 100 µM (inactive)
GI50 (CAKI-1): > 100 µM (inactive)
GI50 (NCI-H23): > 100 µM (inactive)
GI50 (786-0): 51.5 µM (inactive)
GI50 (HCC 2998): > 100 µM (inactive)
GI50 (COLO 205): 88.3 µM (inactive)
GI50 (DLD-1): 33.5 µM (inactive)
GI50 (NCI-H522): > 100 µM (inactive)
GI50 (DMS-273): > 100 µM (inactive)
GI50 (HCT-15): > 100 µM
GI50 (OVCAR-3): > 100 µM (inactive)
GI50 (M14): > 100 µM (inactive)
GI50 (CCRF-CEM): > 100 µM (inactive)
GI50 (SR): > 100 µM (inactive)
GI50 (SK-OV-3): > 100 µM (inactive)
GI50 (HL-60): 47.9 µM (inactive)
GI50 (XF498): > 100 µM (inactive)
GI50 (HOP-18): > 100 µM (inactive)
GI50 (EKVX): > 100 µM (inactive)
GI50 (OVCAR-8): > 100 µM (inactive)
GI50 (RXF 631): > 100 µM (inactive)
GI50 (SF-539): > 100 µM (inactive)
GI50 (NCI-H226): > 100 µM (inactive)
GI50 (RPMI-8226): 24.7 µM (inactive)
GI50 (SK-MEL-2): > 100 µM (inactive)
GI50 (HT-29): > 100 µM (inactive)
GI50 (HCT-116): 90.2 µM (inactive)
GI50 (LOX IMVI): 23.5 µM (inactive)
GI50 (IGROV-1): > 100 µM (inactive)
GI50 (DMS-114): > 100 µM (inactive)
GI50 (MOLT-4): > 100 µM (inactive)
GI50 (U-251): > 100 µM (inactive)
GI50 (UACC-62): > 100 µM (inactive)
GI50 (LXFL 529): > 100 µM (inactive)
GI50 (NCI-H460): > 100 µM (inactive)
GI50 (SF-295): > 100 µM (inactive)
GI50 (Malme-3M): > 100 µM (inactive)
GI50 (HOP-92): > 100 µM (inactive)
GI50 (SNB-19): > 100 µM (inactive)
GI50 (SNB-78): > 100 µM (inactive)
GI50 (UO-31): > 100 µM (inactive)
GI50 (SF-268): > 100 µM (inactive)
GI50 (ACHN): > 100 µM (inactive)
GI50 (SK-MEL-28): > 100 µM (inactive)
GI50 (KM-20L2): > 100 µM (inactive)
GI50 (A498): > 100 µM (inactive)
GI50 (UACC-257): > 100 µM (inactive)
GI50 (A549): 38.2 µM (inactive)
GI50 (HOP-62): > 100 µM (inactive)
GI50 (SK-MEL-5): > 100 µM (inactive)
GI50 (OVCAR-5): > 100 µM (inactive)
GI50 (SW-620): 13.2 µM (inactive)
GI50 (RXF 393): 10.3 µM (inactive)

CCCCCCCCCCCCC(Br)C(=O)NCC(N)=O (stereo not drawn)
GI50 (M19-MEL): 15 µM (inactive)
GI50 (KM12): 14.2 µM (inactive)
GI50 (SN12C): 1.73 µM (inactive)
GI50 (OVCAR-4): 3.55 µM (inactive)
GI50 (SNB-75): 0.118 µM (active)
GI50 (TK-10): 18.1 µM (inactive)
GI50 (NCI-H23): 4.51 µM (inactive)
GI50 (786-0): 6.85 µM (inactive)
GI50 (HCC 2998): 16.1 µM (inactive)
GI50 (COLO 205): 21.2 µM (inactive)
GI50 (DLD-1): 12.9 µM (inactive)
GI50 (NCI-H522): 2.28 µM (inactive)
GI50 (DMS-273): 11.7 µM (inactive)
GI50 (HCT-15): 8.87 µM
GI50 (OVCAR-3): 15 µM (inactive)
GI50 (M14): 11.1 µM (inactive)
GI50 (CCRF-CEM): 2.45 µM (inactive)
GI50 (SK-OV-3): 41.6 µM (inactive)
GI50 (HL-60): 4.57 µM (inactive)
GI50 (XF498): 1.37 µM (inactive)
GI50 (HOP-18): 14.3 µM (inactive)
GI50 (EKVX): 20.6 µM (inactive)
GI50 (OVCAR-8): 4.79 µM (inactive)
GI50 (RXF 631): 3.63 µM (inactive)
GI50 (SF-539): 14.4 µM (inactive)
GI50 (NCI-H226): 1.67 µM (inactive)
GI50 (SK-MEL-2): 11.7 µM (inactive)
GI50 (HT-29): 15.8 µM (inactive)
GI50 (HCT-116): 1.83 µM (inactive)
GI50 (LOX IMVI): 12.4 µM (inactive)
GI50 (IGROV-1): 9.66 µM (inactive)
GI50 (DMS-114): 3.61 µM (inactive)
GI50 (U-251): 11.6 µM (inactive)
GI50 (UACC-62): 5.86 µM (inactive)
GI50 (LXFL 529): 9.91 µM (inactive)
GI50 (NCI-H460): 16 µM (inactive)
GI50 (SF-295): 14.3 µM (inactive)
GI50 (Malme-3M): 13.2 µM (inactive)
GI50 (HOP-92): 3.7 µM (inactive)
GI50 (SNB-19): 11.2 µM (inactive)
GI50 (SNB-78): 12.4 µM (inactive)
GI50 (UO-31): 2.09 µM (inactive)
GI50 (SF-268): 3.42 µM (inactive)
GI50 (ACHN): 15 µM (inactive)
GI50 (SK-MEL-28): 15.2 µM (inactive)
GI50 (KM-20L2): 20.4 µM (inactive)
GI50 (A498): 13.6 µM (inactive)
GI50 (UACC-257): 11.4 µM (inactive)
GI50 (A549): 15.6 µM (inactive)
GI50 (HOP-62): 15 µM (inactive)
GI50 (SK-MEL-5): 4.57 µM (inactive)
GI50 (OVCAR-5): 29.4 µM (inactive)
GI50 (SW-620): 16 µM (inactive)
GI50 (RXF 393): 3.6 µM (inactive)
